Assays:
[1] = Solubility of various pesticides in alkyl nitrile; type: physicochemical
Excerpt: In Table 1, the designation of C14-18 represents the nitrile derived from tallow and C8-C16 represents the nitrile derived from coco. Note that the C14-C18 tallow nitrile corresponds to an R value of C13-C17 in Formula (I), because Formula (I) includes a carbon atom outside of the R group definition. Likewise, C8-C16 coco nitrile corresponds to an R value of C7-C15 in Formula (I). The C10 value in the first column of Table 1 corresponds to an R value of C9 in Formula (I) for the same reasons.

[2] = Appearance, flow and viscosity of (DMAPA) DDBS diluted with fatty nitrile; type: physicochemical
Excerpt: Dimethylaminopropylamine dodecylbenzene sulfonic acid (DMAPA-DDBS) is generally highly viscous. A low viscosity liquid sample of (DMAPA) DDBS was obtained by mixing 51.69 g of DDBS, 40 g tallow nitrile (fractionated), followed by slowly adding 8.31 g DMAPA.
A liquid sample of dimethylaminopropylamine (DMAPA) DDBS was obtained by mixing 43.08 g dodecylbenzene sulfonic (DDBS) acid, 25 g oleic nitrile, 25 g castor oil ethoxylate (10EO), followed by slowly adding 6.92 g DMAPA.

[3] = 0.1 g in 5 g C14-C18 (tallow) nitrile
[4] = in 100 g C10 nitrile, room temperature
[5] = in 100 g C14-C18 (tallow) nitrile
[6] = <10 g in 100 g C14-C18 (tallow) nitrile

## CNC.O=C(O)COc1ccc(Cl)cc1Cl [2,4-D DMA]
[1]; [3]
  Result (solubility in alkyl nitrile): Solid at bottom

## CCOP(=S)(OCC)Oc1nc(Cl)c(Cl)cc1Cl [Chlorpyrifos]
[1]; 44 g in 100 g C14-C18 (tallow) nitrile
  Result (solubility in alkyl nitrile): Dissolved
[1]; in 20 g C10 nitrile + 80 g Solvesso 100 solvent, room temperature
  Wt, g (pesticide dissolved): 102 g
[1]; in 20 g C10 nitrile + 80 g methyl ester solvent, room temperature
  Wt, g (pesticide dissolved): 87 g
[1]; in 30 g C10 nitrile + 70 g methyl ester solvent, room temperature
  Wt, g (pesticide dissolved): 100 g
[1]; in 35 g C10 nitrile + 65 g Solvesso 100 solvent, room temperature
  Wt, g (pesticide dissolved): 103 g
[1]; in 40 g C10 nitrile + 60 g methyl ester solvent, room temperature
  Wt, g (pesticide dissolved): 166 g
[1]; in 50 g C10 nitrile + 50 g Solvesso 100 solvent, room temperature
  Wt, g (pesticide dissolved): 102 g
[1]; [4]
  Wt, g (pesticide dissolved): 84 g
[1]; [5]
  Wt, g (pesticide dissolved): 44 g
[1]; in C10 nitrile (Arneel 10D)
  amount the C10 nitrile can dissolve: about 46%

## O=C(O)CNCP(=O)(O)O [Glyphosate acid]
[1]; [3]
  Result (solubility in alkyl nitrile): Solid at bottom

## COc1cc(OC)nc(NC(=O)NS(=O)(=O)c2ncccc2C(=O)N(C)C)n1 [Nicosulfuron]
[1]; 0.114 g (92.22%) in 1 g C14-C18 (tallow) nitrile
  Result (solubility in alkyl nitrile): Suspension

## CC(C)(C)C(O)(CCc1ccc(Cl)cc1)Cn1cncn1 (stereo not drawn) [Tebuconazole]
[1]; 0.4 g in 5 g C14-C18 (tallow) nitrile
  Result (solubility in alkyl nitrile): Hazy to clr
[1]; [6]
  Result (solubility in alkyl nitrile): Dissolved
[1]; [4]
  Wt, g (pesticide dissolved): <10 g
[1]; [5]
  Wt, g (pesticide dissolved): <10 g

## CON=C(C(=O)OC)c1ccccc1CON=C(C)c1cccc(C(F)(F)F)c1 [Trifloxystrobin]
[1]; [6]
  Result (solubility in alkyl nitrile): Dissolved
[1]; in 50 g C10 nitrile + 50 g rapeseed methylester (solvent), room temperature
  Wt, g (pesticide dissolved): 14 g
[1]; [4]
  Wt, g (pesticide dissolved): 19 g
[1]; [5]
  Wt, g (pesticide dissolved): <10 g

## NC(N)=O [Urea]
[1]; 0.26 g in 1 g C14-C18 (tallow) nitrile
  Result (solubility in alkyl nitrile): Doesn't dissolve
[1]; fatty nitrile as solvent
  solvency power of fatty nitrile towards the agrochemical: very little solvency power

## Dimethylaminopropylamine dodecylbenzene sulfonic acid [(DMAPA) DDBS]
[2]; 43.08 g DDBS acid, 25 g oleic nitrile, 25 g castor oil ethoxylate (10EO), 6.92 g DMAPA
  appearance, flow and viscosity of sample: clear, flowed at about 0° C., and had acceptable viscosity
[2]; 51.69 g DDBS, 40 g tallow nitrile (fractionated), 8.31 g DMAPA
  appearance, flow and viscosity of sample: clear, flowed freely at room temperature and had acceptable viscosity
[2]; oleic nitrile instead of tallow nitrile
  appearance, flow and viscosity of sample: flowed better at lower temperatures

## Pyritherin
[1]; 3.15 g in 5 g C14-C18 (tallow) nitrile
  Result (solubility in alkyl nitrile): Clear
